From publication PMC5218480 (PLoS ONE, 2017)

Tested on: MV-4-11 cells
Experiment: Gene expression microarray analysis (Affymetrix PrimeView) and GSEA
Format: cell-based, human
Set-up: RFU PODN (11730768_x_at) / Fold change /veh PODN (11730768_x_at) / RFU LINC00158 (11744669_a_at) / Fold change /veh LINC00158 (11744669_a_at) / RFU DUSP10 (11751237_a_at) / Fold change /veh DUSP10 (11751237_a_at) / RFU ID3 (11757404_x_at) / Fold change /veh ID3 (11757404_x_at) / RFU PLEKHG5 (11737974_s_at) / Fold change /veh PLEKHG5 (11737974_s_at) / RFU LRRC4B (11730491_at) / Fold change /veh LRRC4B (11730491_at) / RFU GIMAP4 (11747438_a_at) / Fold change /veh GIMAP4 (11747438_a_at) / RFU KRT8 (11758183_x_at) / Fold change /veh KRT8 (11758183_x_at) / RFU CNN1 (11734310_a_at) / Fold change /veh CNN1 (11734310_a_at) / RFU VPS37D (11726825_at) / Fold change /veh VPS37D (11726825_at) / RFU C10orf10 (11716522_x_at) / Fold change /veh C10orf10 (11716522_x_at) / RFU KIR2DL2 /// KIR2DL4 /// KIR2DL5A /// KIR2DL5B /// KIR2DS1 /// KIR2DS2 /// KIR2DS3 /// KIR2DS4 /// KIR3DL3 /// KIR3DL3 /// KIR3DS1 (11738374_at) / Fold change /veh KIR2DL2 /// KIR2DL4 /// KIR2DL5A /// KIR2DL5B /// KIR2DS1 /// KIR2DS2 /// KIR2DS3 /// KIR2DS4 /// KIR3DL3 /// KIR3DL3 /// KIR3DS1 (11738374_at) / RFU C1QL1 (11718748_at) / Fold change /veh C1QL1 (11718748_at) / RFU TMPRSS4 (11747572_a_at) / Fold change /veh TMPRSS4 (11747572_a_at) / RFU HAMP (11756126_x_at) / Fold change /veh HAMP (11756126_x_at) / RFU RNFT2 (11725882_a_at) / Fold change /veh RNFT2 (11725882_a_at) / RFU NR4A2 (11747474_a_at) / Fold change /veh NR4A2 (11747474_a_at) / RFU ABCC12 (11746883_a_at) / Fold change /veh ABCC12 (11746883_a_at) / RFU TMEM136 (11760407_x_at) / Fold change /veh TMEM136 (11760407_x_at) / RFU CLDN22 /// WWC2 (11732394_at) / Fold change /veh CLDN22 /// WWC2 (11732394_at) / RFU HLA-DPB1 (11760878_x_at) / Fold change /veh HLA-DPB1 (11760878_x_at) / RFU SPINT1 (11716480_a_at) / Fold change /veh SPINT1 (11716480_a_at) / RFU GAP43 (11754022_s_at) / Fold change /veh GAP43 (11754022_s_at) / RFU A4GNT (11735810_at) / Fold change /veh A4GNT (11735810_at) / RFU PRB3 (11715151_x_at) / Fold change /veh PRB3 (11715151_x_at) / RFU TUBB4B (11761932_at) / Fold change /veh TUBB4B (11761932_at) / RFU CAPN14 (11732068_a_at) / Fold change /veh CAPN14 (11732068_a_at) / RFU TMCC2 (11721928_a_at) / Fold change /veh TMCC2 (11721928_a_at) / RFU IRGQ (11745062_a_at) / Fold change /veh IRGQ (11745062_a_at) / RFU FAM174B (11720279_a_at) / Fold change /veh FAM174B (11720279_a_at) / RFU TMPRSS4 (11748680_a_at) / Fold change /veh TMPRSS4 (11748680_a_at) / RFU FAM212B (11763350_a_at) / Fold change /veh FAM212B (11763350_a_at) / RFU PLEKHG5 (11743358_a_at) / Fold change /veh PLEKHG5 (11743358_a_at) / RFU ZSCAN30 (11745921_a_at) / Fold change /veh ZSCAN30 (11745921_a_at) / RFU CMKLR1 (11741424_a_at) / Fold change /veh CMKLR1 (11741424_a_at) / RFU LOC101060620 /// MAPK8IP1 (11723275_at) / Fold change /veh LOC101060620 /// MAPK8IP1 (11723275_at) / RFU SPTSSB (11747773_x_at) / Fold change /veh SPTSSB (11747773_x_at) / RFU PRSS12 (11739890_at) / Fold change /veh PRSS12 (11739890_at) / RFU BIN1 (11741810_x_at) / Fold change /veh BIN1 (11741810_x_at) / RFU WNT11 (11732464_a_at) / Fold change /veh WNT11 (11732464_a_at) / RFU C10orf10 (11716521_a_at) / Fold change /veh C10orf10 (11716521_a_at) / RFU C5orf56 (11738089_at) / Fold change /veh C5orf56 (11738089_at) / RFU CYB561 (11721691_x_at) / Fold change /veh CYB561 (11721691_x_at) / RFU ANKRD19P (11752326_a_at) / Fold change /veh ANKRD19P (11752326_a_at) / RFU OR2T12 /// OR2T33 /// OR2T8 (11738714_s_at) / Fold change /veh OR2T12 /// OR2T33 /// OR2T8 (11738714_s_at) / RFU VCAN (11748164_a_at) / Fold change /veh VCAN (11748164_a_at) / RFU JSRP1 (11732532_at) / Fold change /veh JSRP1 (11732532_at) / RFU KRTAP10-11 (11738290_x_at) / Fold change /veh KRTAP10-11 (11738290_x_at) / RFU MYO3A (11730013_a_at) / Fold change /veh MYO3A (11730013_a_at) / RFU EBF3 (11725865_a_at) / Fold change /veh EBF3 (11725865_a_at) / RFU CAMK2N1 (11719241_x_at) / Fold change /veh CAMK2N1 (11719241_x_at) / RFU C5orf56 (11738088_a_at) / Fold change /veh C5orf56 (11738088_a_at) / RFU OLFML3 (11715873_a_at) / Fold change /veh OLFML3 (11715873_a_at) / RFU LOC100653217 /// NTM (11731650_a_at) / Fold change /veh LOC100653217 /// NTM (11731650_a_at) / RFU MAPK11 (11762145_a_at) / Fold change /veh MAPK11 (11762145_a_at) / RFU FIZ1 (11724087_x_at) / Fold change /veh FIZ1 (11724087_x_at) / RFU OASL (11726364_x_at) / Fold change /veh OASL (11726364_x_at) / RFU SOX15 (11748057_x_at) / Fold change /veh SOX15 (11748057_x_at) / RFU CD79A (11719716_a_at) / Fold change /veh CD79A (11719716_a_at) / RFU HIST1H1D (11736915_at) / Fold change /veh HIST1H1D (11736915_at) / RFU CASKIN2 (11723855_a_at) / Fold change /veh CASKIN2 (11723855_a_at) / RFU LOC730098 (11760151_x_at) / Fold change /veh LOC730098 (11760151_x_at) / RFU OR4N2 (11742367_at) / Fold change /veh OR4N2 (11742367_at) / RFU PRRT2 (11749266_a_at) / Fold change /veh PRRT2 (11749266_a_at) / RFU SNX32 (11753110_a_at) / Fold change /veh SNX32 (11753110_a_at) / RFU CDHR5 (11726645_a_at) / Fold change /veh CDHR5 (11726645_a_at) / RFU RCAN1 (11760418_a_at) / Fold change /veh RCAN1 (11760418_a_at) / RFU FAM167A (11723789_a_at) / Fold change /veh FAM167A (11723789_a_at) / RFU FAM26E (11764081_at) / Fold change /veh FAM26E (11764081_at) / RFU ISYNA1 (11749810_s_at) / Fold change /veh ISYNA1 (11749810_s_at) / RFU ACY1 (11761880_at) / Fold change /veh ACY1 (11761880_at) / RFU 11764098_at / Fold change /veh 11764098_at / RFU SAMD14 (11745864_x_at) / Fold change /veh SAMD14 (11745864_x_at) / RFU NPB (11741838_a_at) / Fold change /veh NPB (11741838_a_at) / RFU TMPRSS6 (11731388_a_at) / Fold change /veh TMPRSS6 (11731388_a_at) / RFU KRTAP10-2 (11738614_at) / Fold change /veh KRTAP10-2 (11738614_at) / RFU ARHGAP8 /// PRR5-ARHGAP8 (11727945_x_at) / Fold change /veh ARHGAP8 /// PRR5-ARHGAP8 (11727945_x_at) / RFU KRTAP5-7 /// NADSYN1 (11734609_at) / Fold change /veh KRTAP5-7 /// NADSYN1 (11734609_at) / RFU RASL12 (11751679_a_at) / Fold change /veh RASL12 (11751679_a_at) / RFU CDKN2B (11736163_a_at) / Fold change /veh CDKN2B (11736163_a_at) / RFU PRF1 (11729649_at) / Fold change /veh PRF1 (11729649_at) / RFU, ZNF638 /// ZNF638-IT1 / Fold change vs veh, ZNF638 /// ZNF638-IT1 / RFU, PANK3 / Fold change vs veh, PANK3 / RFU, SH3YL1 / Fold change vs veh, SH3YL1 / RFU, ZEB2 / Fold change vs veh, ZEB2 / RFU, NRIP1 / Fold change vs veh, NRIP1 / RFU, PTTG1IP / Fold change vs veh, PTTG1IP / RFU, CAPN2 / Fold change vs veh, CAPN2 / RFU, MED14 / Fold change vs veh, MED14 / RFU, SNORA58 / Fold change vs veh, SNORA58 / RFU, C1orf63 / Fold change vs veh, C1orf63 / RFU, LRRFIP1 / Fold change vs veh, LRRFIP1 / RFU, NDUFAF7 / Fold change vs veh, NDUFAF7 / RFU, SLC12A2 / Fold change vs veh, SLC12A2 / RFU, IBTK / Fold change vs veh, IBTK / RFU, ESF1 / Fold change vs veh, ESF1 / Fold change vs veh, TMEM50B / RFU, TAOK1 / Fold change vs veh, TAOK1 / RFU, ACBD3 / Fold change vs veh, ACBD3 / RFU, TMA16 / Fold change vs veh, TMA16 / RFU, RWDD3 / Fold change vs veh, RWDD3 / RFU, BCAT1 / Fold change vs veh, BCAT1 / RFU, EDEM3 / Fold change vs veh, EDEM3 / RFU, TMEM33 / Fold change vs veh, TMEM33 / RFU, WDR75 / Fold change vs veh, WDR75 / RFU, AHCTF1 / Fold change vs veh, AHCTF1 / RFU, TFRC / Fold change vs veh, TFRC / RFU, ZDHHC17 / Fold change vs veh, ZDHHC17 / RFU, NOM1 / Fold change vs veh, NOM1 / RFU, ARL8B / Fold change vs veh, ARL8B / RFU, ZBTB11 / Fold change vs veh, ZBTB11 / RFU, TAMM41 / Fold change vs veh, TAMM41 / RFU, KIAA1704 /// LOC100996395 / Fold change vs veh, KIAA1704 /// LOC100996395 / RFU, ING1 / Fold change vs veh, ING1 / RFU, TRMT61B / Fold change vs veh, TRMT61B / RFU, FUBP3 / Fold change vs veh, FUBP3 / RFU, TP53 / Fold change vs veh, TP53 / RFU, TNKS2 / Fold change vs veh, TNKS2 / RFU, ZFP14 / Fold change vs veh, ZFP14 / RFU, ACTR2 / Fold change vs veh, ACTR2 / RFU, PPP3R1 / Fold change vs veh, PPP3R1 / RFU, PIK3R1 / Fold change vs veh, PIK3R1 / RFU, HNRNPA1 / Fold change vs veh, HNRNPA1 / RFU, RNF170 / Fold change vs veh, RNF170 / RFU, ZNF28 / Fold change vs veh, ZNF28 / RFU, RNGTT / Fold change vs veh, RNGTT / RFU, OGT / Fold change vs veh, OGT / RFU, BRD1 / Fold change vs veh, BRD1 / RFU, MARS / Fold change vs veh, MARS / RFU, ZNF655 / Fold change vs veh, ZNF655 / RFU, FAHD1 / Fold change vs veh, FAHD1 / RFU, BDP1 / Fold change vs veh, BDP1 / RFU, LRRCC1 / Fold change vs veh, LRRCC1 / RFU, ARID1A / Fold change vs veh, ARID1A / RFU, ZNF146 / Fold change vs veh, ZNF146 / RFU, ZNF330 / Fold change vs veh, ZNF330 / RFU, GPN3 / Fold change vs veh, GPN3 / RFU, C9orf123 / Fold change vs veh, C9orf123 / RFU, N4BP2L2 / Fold change vs veh, N4BP2L2 / RFU, ARFIP1 / Fold change vs veh, ARFIP1 / RFU, FAM179B / Fold change vs veh, FAM179B / RFU, BCL10 / Fold change vs veh, BCL10 / RFU, UHRF1BP1L / Fold change vs veh, UHRF1BP1L / RFU, BET1 / Fold change vs veh, BET1 / RFU, CNOT2 / Fold change vs veh, CNOT2 / RFU, ZNF268 / Fold change vs veh, ZNF268 / Fold change vs veh, ZNF507 / RFU, DGCR2 / Fold change vs veh, DGCR2 / RFU, WDSUB1 / Fold change vs veh, WDSUB1 / Fold change vs veh, HSP90B1 /// MIR3652 / RFU, ADSS / Fold change vs veh, ADSS / RFU, GK / Fold change vs veh, GK / RFU, ZNF148 / Fold change vs veh, ZNF148 / RFU, TAF9 / Fold change vs veh, TAF9 / RFU, SLC1A5 / Fold change vs veh, SLC1A5 / RFU, SLMO2 / Fold change vs veh, SLMO2 / RFU, ABCC4 / Fold change vs veh, ABCC4 / RFU, LOC101060439 /// RAP1B / Fold change vs veh, LOC101060439 /// RAP1B / RFU, RFX7 / Fold change vs veh, RFX7 / RFU, GTPBP10 / Fold change vs veh, GTPBP10 / RFU, CNEP1R1 / Fold change vs veh, CNEP1R1 / RFU, BIVM-ERCC5 /// ERCC5 / Fold change vs veh, BIVM-ERCC5 /// ERCC5 / RFU, ILF3 / Fold change vs veh, ILF3 / RFU 11762660_at / Fold change /veh 11762660_at / RFU VCAN (11757783_s_at) / Fold change /veh VCAN (11757783_s_at) / RFU DDX43 (11728927_at) / Fold change /veh DDX43 (11728927_at) / RFU KRT8 (11758188_x_at) / Fold change /veh KRT8 (11758188_x_at) / RFU NKD1 (11759106_at) / Fold change /veh NKD1 (11759106_at) / RFU SRD5A1 (11742802_a_at) / Fold change /veh SRD5A1 (11742802_a_at) / RFU TPSAB1 /// TPSB2 (11721975_s_at) / Fold change /veh TPSAB1 /// TPSB2 (11721975_s_at) / RFU GSTM3 (11746129_a_at) / Fold change /veh GSTM3 (11746129_a_at) / RFU IL23R (11737362_x_at) / Fold change /veh IL23R (11737362_x_at) / RFU TMEM51 (11727254_a_at) / Fold change /veh TMEM51 (11727254_a_at) / RFU PIWIL2 (11732686_x_at) / Fold change /veh PIWIL2 (11732686_x_at) / RFU ORM1 (11744905_x_at) / Fold change /veh ORM1 (11744905_x_at) / RFU CCDC152 (11743942_at) / Fold change /veh CCDC152 (11743942_at) / RFU ECM1 (11717891_a_at) / Fold change /veh ECM1 (11717891_a_at) / RFU IL23R (11748794_a_at) / Fold change /veh IL23R (11748794_a_at) / RFU TNFAIP8L3 (11732012_x_at) / Fold change /veh TNFAIP8L3 (11732012_x_at) / RFU MBOAT4 (11741988_at) / Fold change /veh MBOAT4 (11741988_at) / RFU 11764193_at / Fold change /veh 11764193_at / RFU TMEM53 (11763286_at) / Fold change /veh TMEM53 (11763286_at) / RFU MAGEB2 (11727129_at) / Fold change /veh MAGEB2 (11727129_at) / RFU TMEM200A (11744735_a_at) / Fold change /veh TMEM200A (11744735_a_at) / RFU CCDC152 (11751479_a_at) / Fold change /veh CCDC152 (11751479_a_at) / RFU FAM211A (11726209_a_at) / Fold change /veh FAM211A (11726209_a_at) / RFU RGS16 (11746705_a_at) / Fold change /veh RGS16 (11746705_a_at) / RFU VCAN (11755009_s_at) / Fold change /veh VCAN (11755009_s_at) / RFU RHOB (11743442_s_at) / Fold change /veh RHOB (11743442_s_at) / RFU RGS16 (11720943_a_at) / Fold change /veh RGS16 (11720943_a_at) / RFU RGS16 (11720944_at) / Fold change /veh RGS16 (11720944_at) / RFU, VPS4B / Fold change vs veh, VPS4B / RFU, CREB1 / Fold change vs veh, CREB1 / RFU, DNAJC13 / Fold change vs veh, DNAJC13 / RFU, GNAQ / Fold change vs veh, GNAQ / RFU, CDK5R1 / Fold change vs veh, CDK5R1 / RFU, ZRANB3 / Fold change vs veh, ZRANB3 / RFU, CUL4A / Fold change vs veh, CUL4A / RFU, CCNY / Fold change vs veh, CCNY / RFU, UFL1 / Fold change vs veh, UFL1 / RFU, COG3 / Fold change vs veh, COG3 / RFU, DIAPH2 / Fold change vs veh, DIAPH2 / RFU, SKA2 / Fold change vs veh, SKA2 / RFU, AFF3 / Fold change vs veh, AFF3 / RFU, LMF1 / Fold change vs veh, LMF1 / RFU, IPO11 / Fold change vs veh, IPO11 / RFU, DFFB / Fold change vs veh, DFFB / RFU, FOXP1 / Fold change vs veh, FOXP1 / RFU, CARD8 / Fold change vs veh, CARD8 / RFU, STRN3 / Fold change vs veh, STRN3 / RFU, ADK / Fold change vs veh, ADK / RFU, RASSF2 / Fold change vs veh, RASSF2 / RFU, WIPF1 / Fold change vs veh, WIPF1 / RFU, LARP1B / Fold change vs veh, LARP1B / RFU, RASA1 / Fold change vs veh, RASA1 / RFU, RB1 / Fold change vs veh, RB1 / RFU, PPFIA1 / Fold change vs veh, PPFIA1 / RFU, MAT2A / Fold change vs veh, MAT2A / RFU, CCT5 / Fold change vs veh, CCT5 / RFU, WDR92 / Fold change vs veh, WDR92 / RFU, CUX1 / Fold change vs veh, CUX1 / RFU, TTC7A / Fold change vs veh, TTC7A / RFU, TMEM135 / Fold change vs veh, TMEM135 / RFU, DEPTOR / Fold change vs veh, DEPTOR / RFU, CPM / Fold change vs veh, CPM / RFU, DNAJB6 / Fold change vs veh, DNAJB6 / RFU, CACNA2D3 / Fold change vs veh, CACNA2D3 / RFU, DTX4 / Fold change vs veh, DTX4 / RFU, TFCP2 / Fold change vs veh, TFCP2 / RFU, GMCL1 /// GMCL1P1 / Fold change vs veh, GMCL1 /// GMCL1P1 / RFU, AEBP2 / Fold change vs veh, AEBP2 / RFU, SNHG1 /// SNORD22 /// SNORD25 /// SNORD26 /// SNORD27 /// SNORD28 /// SNORD29 /// SNORD31 / Fold change vs veh, SNHG1 /// SNORD22 /// SNORD25 /// SNORD26 /// SNORD27 /// SNORD28 /// SNORD29 /// SNORD31 / Fold change (Aza/veh), C12orf56 (ProbeSet 11735607_a_at) / Fold change (ACY-1035/veh), C12orf56 (ProbeSet 11735607_a_at) / Fold change (Aza/veh), FGFR1OP (ProbeSet 11751329_s_at) / Fold change (ACY-1035/veh), FGFR1OP (ProbeSet 11751329_s_at) / Fold change (Aza/veh), VPS36 (ProbeSet 11739960_a_at) / Fold change (ACY-1035/veh), VPS36 (ProbeSet 11739960_a_at) / RFU SYPL1 (11715823_x_at) / Fold change /veh SYPL1 (11715823_x_at) / RFU IGFBP7 (11715501_s_at) / Fold change /veh IGFBP7 (11715501_s_at) / RFU REEP3 (11722064_at) / Fold change /veh REEP3 (11722064_at) / RFU IGLL1 (11728026_x_at) / Fold change /veh IGLL1 (11728026_x_at): dose or concentration left out as unconfirmed
Conditions: MV-4-11 cells, 48 hours

Nc1ccc(-c2cccs2)cc1NC(=O)c1ccc2c(c1)cc(C1CC1)n2CCN1CCOCC1 [ACY-1035]
RFU RNFT2 (11725882_a_at): 13.97 RFU
